Measured values published in the supplement of paper PMC12076712.

Assays:
Assay in all cases: pIC50, kinobeads binding competition
Conditions in all cases: cell material: Jurkat lysate
[1] = target: SYK (UniProt P43405)
[2] = target: T1, UniProt Q99759
T1 sequence (whole entry): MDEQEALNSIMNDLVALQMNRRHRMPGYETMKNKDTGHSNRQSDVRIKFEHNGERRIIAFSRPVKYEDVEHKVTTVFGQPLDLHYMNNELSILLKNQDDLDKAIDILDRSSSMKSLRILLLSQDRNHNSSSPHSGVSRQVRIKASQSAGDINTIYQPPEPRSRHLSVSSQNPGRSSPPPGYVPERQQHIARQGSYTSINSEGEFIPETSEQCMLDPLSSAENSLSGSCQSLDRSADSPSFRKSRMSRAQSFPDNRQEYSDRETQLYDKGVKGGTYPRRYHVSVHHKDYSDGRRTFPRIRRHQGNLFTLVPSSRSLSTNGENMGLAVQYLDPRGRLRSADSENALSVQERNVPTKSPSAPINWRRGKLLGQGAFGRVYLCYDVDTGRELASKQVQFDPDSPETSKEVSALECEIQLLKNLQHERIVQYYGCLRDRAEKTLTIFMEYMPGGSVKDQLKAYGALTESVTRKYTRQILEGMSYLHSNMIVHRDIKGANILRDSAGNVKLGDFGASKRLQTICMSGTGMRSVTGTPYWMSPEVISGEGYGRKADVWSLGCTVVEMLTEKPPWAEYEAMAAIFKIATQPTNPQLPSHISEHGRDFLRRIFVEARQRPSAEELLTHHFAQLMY

[3] = target: PIK3R4 (UniProt Q99570)
[4] = target: UniProt Q5TCX8
[5] = target: MAST1 (UniProt Q9Y2H9)
[6] = target: T2, GAK (UniProt O14976)
T2 sequence (whole entry): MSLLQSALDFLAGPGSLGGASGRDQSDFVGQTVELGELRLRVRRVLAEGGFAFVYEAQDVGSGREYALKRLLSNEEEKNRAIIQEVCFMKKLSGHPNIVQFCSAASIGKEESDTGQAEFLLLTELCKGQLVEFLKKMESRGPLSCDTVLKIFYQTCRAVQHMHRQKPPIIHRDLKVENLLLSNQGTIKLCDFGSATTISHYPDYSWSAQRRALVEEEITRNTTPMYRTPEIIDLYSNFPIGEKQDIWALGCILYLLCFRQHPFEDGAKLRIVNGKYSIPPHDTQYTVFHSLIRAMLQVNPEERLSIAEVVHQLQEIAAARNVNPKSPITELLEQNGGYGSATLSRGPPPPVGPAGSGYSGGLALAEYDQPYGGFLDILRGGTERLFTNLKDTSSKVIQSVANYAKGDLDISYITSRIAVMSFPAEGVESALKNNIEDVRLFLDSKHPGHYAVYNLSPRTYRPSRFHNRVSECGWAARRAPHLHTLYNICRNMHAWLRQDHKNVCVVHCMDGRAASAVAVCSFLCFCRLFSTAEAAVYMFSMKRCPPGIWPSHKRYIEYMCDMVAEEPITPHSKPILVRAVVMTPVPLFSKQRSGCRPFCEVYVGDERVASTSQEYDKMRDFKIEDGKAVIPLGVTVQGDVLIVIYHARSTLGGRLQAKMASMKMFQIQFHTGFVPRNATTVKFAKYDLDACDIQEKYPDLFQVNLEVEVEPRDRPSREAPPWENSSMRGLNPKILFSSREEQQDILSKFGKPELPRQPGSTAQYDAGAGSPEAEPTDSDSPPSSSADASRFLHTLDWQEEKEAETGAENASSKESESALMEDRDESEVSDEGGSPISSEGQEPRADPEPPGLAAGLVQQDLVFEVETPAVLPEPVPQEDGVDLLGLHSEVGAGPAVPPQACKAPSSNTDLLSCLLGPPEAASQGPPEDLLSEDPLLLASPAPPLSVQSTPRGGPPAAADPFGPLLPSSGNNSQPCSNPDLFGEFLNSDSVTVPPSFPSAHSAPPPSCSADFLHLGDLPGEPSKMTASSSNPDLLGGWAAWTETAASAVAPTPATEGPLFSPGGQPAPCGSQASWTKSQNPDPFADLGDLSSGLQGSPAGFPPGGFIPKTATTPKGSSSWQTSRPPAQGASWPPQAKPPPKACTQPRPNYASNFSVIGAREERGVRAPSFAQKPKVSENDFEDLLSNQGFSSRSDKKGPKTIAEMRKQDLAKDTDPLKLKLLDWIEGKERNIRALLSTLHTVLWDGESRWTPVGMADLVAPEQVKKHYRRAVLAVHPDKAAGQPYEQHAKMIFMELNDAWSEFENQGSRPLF

[7] = target: UniProt Q9HCP0
[8] = target: SLK (UniProt Q9H2G2)
[9] = target: UniProt Q15208

Measured: pIC50

PIK3R4, sequence (Q99570 whole entry): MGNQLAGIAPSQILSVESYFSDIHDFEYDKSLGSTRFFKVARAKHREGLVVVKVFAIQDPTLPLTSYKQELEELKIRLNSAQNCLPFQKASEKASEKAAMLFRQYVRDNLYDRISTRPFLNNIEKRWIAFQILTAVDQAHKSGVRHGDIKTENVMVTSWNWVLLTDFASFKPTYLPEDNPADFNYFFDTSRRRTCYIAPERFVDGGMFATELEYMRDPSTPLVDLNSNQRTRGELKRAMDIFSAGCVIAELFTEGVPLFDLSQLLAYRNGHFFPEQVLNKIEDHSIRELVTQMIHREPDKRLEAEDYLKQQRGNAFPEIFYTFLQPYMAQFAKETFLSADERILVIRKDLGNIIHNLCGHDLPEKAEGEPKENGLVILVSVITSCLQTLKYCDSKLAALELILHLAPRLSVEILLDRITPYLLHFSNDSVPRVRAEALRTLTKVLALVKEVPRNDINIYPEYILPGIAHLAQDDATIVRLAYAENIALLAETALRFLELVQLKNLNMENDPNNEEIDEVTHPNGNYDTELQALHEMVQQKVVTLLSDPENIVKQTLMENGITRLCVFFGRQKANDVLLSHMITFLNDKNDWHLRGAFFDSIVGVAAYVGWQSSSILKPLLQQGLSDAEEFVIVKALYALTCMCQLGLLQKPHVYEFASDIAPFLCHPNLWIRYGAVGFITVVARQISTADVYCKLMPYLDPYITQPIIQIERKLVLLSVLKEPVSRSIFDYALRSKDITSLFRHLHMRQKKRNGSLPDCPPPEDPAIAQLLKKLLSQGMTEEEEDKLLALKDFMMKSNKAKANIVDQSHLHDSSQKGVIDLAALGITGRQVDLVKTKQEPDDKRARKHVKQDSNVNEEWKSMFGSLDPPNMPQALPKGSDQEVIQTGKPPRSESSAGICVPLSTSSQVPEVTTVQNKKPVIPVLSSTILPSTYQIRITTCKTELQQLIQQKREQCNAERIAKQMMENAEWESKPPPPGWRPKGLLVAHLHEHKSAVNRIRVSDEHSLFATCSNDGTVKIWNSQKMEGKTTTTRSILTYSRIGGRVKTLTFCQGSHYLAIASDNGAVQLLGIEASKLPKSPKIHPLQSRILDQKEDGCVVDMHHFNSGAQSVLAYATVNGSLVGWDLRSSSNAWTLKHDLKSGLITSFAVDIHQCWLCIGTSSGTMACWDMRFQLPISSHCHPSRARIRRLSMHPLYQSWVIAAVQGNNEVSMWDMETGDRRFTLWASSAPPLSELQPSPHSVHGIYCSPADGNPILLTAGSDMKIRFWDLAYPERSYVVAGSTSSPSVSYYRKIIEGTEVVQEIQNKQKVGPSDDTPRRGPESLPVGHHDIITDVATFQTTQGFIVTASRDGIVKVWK
MAST1, sequence (Q9Y2H9 whole entry, looked up): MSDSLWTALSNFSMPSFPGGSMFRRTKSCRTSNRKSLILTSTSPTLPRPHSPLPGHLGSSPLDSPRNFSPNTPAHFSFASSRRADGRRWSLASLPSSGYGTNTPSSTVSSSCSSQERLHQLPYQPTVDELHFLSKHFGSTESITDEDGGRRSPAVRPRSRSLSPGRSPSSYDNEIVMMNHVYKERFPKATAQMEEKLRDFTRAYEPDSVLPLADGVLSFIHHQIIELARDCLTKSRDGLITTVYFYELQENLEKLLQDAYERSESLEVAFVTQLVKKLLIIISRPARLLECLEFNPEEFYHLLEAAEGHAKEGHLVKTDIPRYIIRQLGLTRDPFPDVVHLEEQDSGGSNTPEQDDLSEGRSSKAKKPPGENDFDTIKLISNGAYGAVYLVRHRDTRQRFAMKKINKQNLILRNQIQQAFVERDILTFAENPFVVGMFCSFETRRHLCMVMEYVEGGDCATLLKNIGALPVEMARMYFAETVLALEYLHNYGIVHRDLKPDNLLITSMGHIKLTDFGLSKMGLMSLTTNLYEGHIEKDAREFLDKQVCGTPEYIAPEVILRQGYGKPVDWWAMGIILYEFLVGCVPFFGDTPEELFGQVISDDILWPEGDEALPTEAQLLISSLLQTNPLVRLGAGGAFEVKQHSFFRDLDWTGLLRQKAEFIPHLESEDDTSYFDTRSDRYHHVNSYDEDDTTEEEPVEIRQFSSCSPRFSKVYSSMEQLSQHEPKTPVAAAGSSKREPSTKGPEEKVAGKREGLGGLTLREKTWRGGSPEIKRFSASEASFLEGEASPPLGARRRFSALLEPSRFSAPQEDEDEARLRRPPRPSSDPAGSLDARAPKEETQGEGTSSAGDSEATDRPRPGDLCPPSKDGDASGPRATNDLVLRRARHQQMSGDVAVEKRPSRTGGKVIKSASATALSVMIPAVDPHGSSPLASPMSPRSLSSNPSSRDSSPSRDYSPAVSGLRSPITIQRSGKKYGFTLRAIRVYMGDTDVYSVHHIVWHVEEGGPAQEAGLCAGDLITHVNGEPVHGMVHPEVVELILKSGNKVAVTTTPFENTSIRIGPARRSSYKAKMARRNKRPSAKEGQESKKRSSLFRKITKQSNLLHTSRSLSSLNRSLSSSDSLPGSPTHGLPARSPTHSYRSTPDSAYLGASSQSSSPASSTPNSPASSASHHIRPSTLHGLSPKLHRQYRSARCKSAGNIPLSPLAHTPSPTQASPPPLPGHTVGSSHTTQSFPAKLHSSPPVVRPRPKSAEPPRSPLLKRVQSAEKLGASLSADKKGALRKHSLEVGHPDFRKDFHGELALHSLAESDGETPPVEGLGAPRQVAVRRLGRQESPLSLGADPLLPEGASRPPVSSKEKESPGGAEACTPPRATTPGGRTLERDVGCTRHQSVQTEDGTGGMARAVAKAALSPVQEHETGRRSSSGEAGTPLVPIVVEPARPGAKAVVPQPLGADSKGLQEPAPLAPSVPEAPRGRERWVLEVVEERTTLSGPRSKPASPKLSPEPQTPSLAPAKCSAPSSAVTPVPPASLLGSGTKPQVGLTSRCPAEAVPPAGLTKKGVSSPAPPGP
UniProt Q5TCX8, sequence (Q5TCX8 whole entry): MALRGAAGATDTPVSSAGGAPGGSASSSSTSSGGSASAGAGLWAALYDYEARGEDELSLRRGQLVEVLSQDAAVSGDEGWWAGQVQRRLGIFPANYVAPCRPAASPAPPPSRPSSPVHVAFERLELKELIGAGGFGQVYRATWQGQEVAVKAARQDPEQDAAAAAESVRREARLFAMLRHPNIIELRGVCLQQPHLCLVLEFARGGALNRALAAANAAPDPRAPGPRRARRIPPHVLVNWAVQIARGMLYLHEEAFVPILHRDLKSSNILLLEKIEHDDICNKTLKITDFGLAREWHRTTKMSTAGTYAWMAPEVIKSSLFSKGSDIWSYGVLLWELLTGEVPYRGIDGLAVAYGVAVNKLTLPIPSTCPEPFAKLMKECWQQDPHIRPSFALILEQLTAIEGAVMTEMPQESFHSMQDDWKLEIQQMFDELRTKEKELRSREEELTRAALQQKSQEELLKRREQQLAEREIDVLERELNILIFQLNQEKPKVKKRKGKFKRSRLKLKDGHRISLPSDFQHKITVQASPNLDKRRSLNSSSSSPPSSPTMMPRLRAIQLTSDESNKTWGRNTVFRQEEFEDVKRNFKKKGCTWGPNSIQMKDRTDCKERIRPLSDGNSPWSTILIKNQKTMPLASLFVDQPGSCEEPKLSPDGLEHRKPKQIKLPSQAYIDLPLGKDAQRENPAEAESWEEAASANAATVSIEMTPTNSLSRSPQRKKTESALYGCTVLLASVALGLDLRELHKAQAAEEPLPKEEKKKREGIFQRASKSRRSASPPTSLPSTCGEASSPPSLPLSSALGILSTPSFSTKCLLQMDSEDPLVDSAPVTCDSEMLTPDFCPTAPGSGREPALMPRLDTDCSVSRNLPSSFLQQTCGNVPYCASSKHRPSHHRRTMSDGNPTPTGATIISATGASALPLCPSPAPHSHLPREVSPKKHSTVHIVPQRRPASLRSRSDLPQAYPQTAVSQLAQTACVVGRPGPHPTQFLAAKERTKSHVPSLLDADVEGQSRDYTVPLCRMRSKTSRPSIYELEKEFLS
UniProt Q9HCP0, sequence (Q9HCP0 whole entry, looked up): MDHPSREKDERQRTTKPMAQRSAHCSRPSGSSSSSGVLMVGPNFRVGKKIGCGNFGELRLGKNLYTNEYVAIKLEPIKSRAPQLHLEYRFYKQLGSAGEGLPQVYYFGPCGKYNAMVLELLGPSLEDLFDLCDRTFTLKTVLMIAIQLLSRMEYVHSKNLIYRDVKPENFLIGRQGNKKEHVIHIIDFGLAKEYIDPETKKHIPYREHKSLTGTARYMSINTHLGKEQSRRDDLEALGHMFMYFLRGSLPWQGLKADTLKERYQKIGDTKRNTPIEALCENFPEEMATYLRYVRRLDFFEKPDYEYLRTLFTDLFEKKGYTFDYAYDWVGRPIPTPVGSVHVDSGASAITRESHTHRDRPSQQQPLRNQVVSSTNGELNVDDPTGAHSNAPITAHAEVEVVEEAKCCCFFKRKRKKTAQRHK
UniProt Q15208, sequence (Q15208 whole entry, looked up): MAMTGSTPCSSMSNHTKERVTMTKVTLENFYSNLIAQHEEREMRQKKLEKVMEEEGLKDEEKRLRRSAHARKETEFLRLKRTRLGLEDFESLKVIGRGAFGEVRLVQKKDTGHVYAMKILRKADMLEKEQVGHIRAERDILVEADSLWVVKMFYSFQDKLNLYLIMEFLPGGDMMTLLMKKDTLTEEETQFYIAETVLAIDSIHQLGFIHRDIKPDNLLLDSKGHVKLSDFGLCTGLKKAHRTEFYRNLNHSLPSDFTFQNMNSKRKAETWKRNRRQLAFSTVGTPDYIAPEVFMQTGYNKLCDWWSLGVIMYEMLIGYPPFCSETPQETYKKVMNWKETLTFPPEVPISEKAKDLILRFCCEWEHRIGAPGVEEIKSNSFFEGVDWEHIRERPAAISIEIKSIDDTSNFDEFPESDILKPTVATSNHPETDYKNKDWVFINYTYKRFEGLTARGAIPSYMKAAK

CCc1cnn2c(NCc3ccc[n+]([O-])c3)cc(N3CCCC[C@H]3CCO)nc12 [dinaciclib]
< 4.52: all assays above
